pIC50: −log10 of the molar value.
Key:
Bovine milk XO = molecular target: T1, Bovine milk XO (Bos taurus, UniProt P80457); experiment: Xanthine oxidase assay (Amplex Red); type: biochemical; settings: compounds at 25 μM and 50 μM (FIG. 4)
T1 construct: Bovine milk XO (grade 1, ammonium sulfate suspension; Sigma-Aldrich); purchased Sigma-Aldrich; host or cells: bovine milk
Procedure: Bovine milk XO (grade 1, ammonium sulfate suspension; Sigma-Aldrich) was first desalted using PD-10 columns (Sephadex G-25, GE Healthcare Biosciences, Piscataway, N.J.) equilibrated in PBS. XO activity was assayed by measuring H2O2 production using the Amplex® Red assay. Reaction mixture contained: 0.02 U/mL XO, 25 mM Hepes, pH 7.4, containing 0.12 M NaCl, 3 mM KCl, 1 mM MgCl2, 0.1 mM Amplex® Red, and 0.32 U/mL of horse radish peroxidase (HRP), reaction was initiated by addition of 1 mM hypoxanthine. Fluorescence was quantified over time using a Biotek Synergy 4 Hybrid Multi-Mode Microplate Reader.
Data are expressed as % of vehicle control.

Nox2 [1] = molecular target: T2, Nox2 (Homo sapiens, UniProt P04839); experiment: ROS (superoxide) generation in whole COS-Nox2 cells, L-012 chemiluminescence; type: cell-based; settings: whole COS-Nox2 cells stimulated with 5 μM PMA
T2 construct: expressed in transfected cells
T2 sequence (P04839 2-570 limits assumed): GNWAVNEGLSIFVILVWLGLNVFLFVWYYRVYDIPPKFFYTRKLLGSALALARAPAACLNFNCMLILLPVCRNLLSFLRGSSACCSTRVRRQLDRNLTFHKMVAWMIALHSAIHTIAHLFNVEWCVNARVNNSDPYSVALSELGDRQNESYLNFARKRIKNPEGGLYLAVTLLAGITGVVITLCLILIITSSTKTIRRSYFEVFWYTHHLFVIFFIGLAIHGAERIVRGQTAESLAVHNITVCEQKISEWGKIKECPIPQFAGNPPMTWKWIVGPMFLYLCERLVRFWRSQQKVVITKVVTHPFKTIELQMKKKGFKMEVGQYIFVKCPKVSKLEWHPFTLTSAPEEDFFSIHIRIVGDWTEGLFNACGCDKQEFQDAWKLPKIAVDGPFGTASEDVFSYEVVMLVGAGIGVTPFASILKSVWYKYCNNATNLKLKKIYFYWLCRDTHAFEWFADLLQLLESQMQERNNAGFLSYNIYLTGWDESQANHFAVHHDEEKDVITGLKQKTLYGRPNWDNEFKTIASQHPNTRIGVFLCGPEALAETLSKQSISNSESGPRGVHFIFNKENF
Excerpt: (§1) All cell culture reagents were obtained from Invitrogen, unless indicated. COS-22 (COS-7 cells stably expressing human p22^phox) and COS-Nox2 (a.k.a. COS-phox) cells (COS-7 cells stably expressing human p22^phox, Nox2, p47^phox and p67^phox) were kindly provided by Dr. Mary C. Dinauer (Indiana University, School of Medicine) (Price et al., Blood, 2002, 99:2653-2661). COS-22 cells were maintained in Dulbecco's Modified Eagle Medium (DMEM) with 4.5 g/L glucose, L-glutamine and sodium pyruvate containing 10% heat-inactivated fetal bovine serum (FBS), 100 units/ml penicillin and 100 μg/ml streptomycin (complete media) supplemented with 1.8 mg/ml G418 (Calbiochem/EMB Bioscience, Gibbstown, N.J.). COS-Nox2 cells were maintained in complete media supplemented with 1.8 mg/mL G418, 1 μg/mL puromycin (Sigma, St Louis, Mo.) and 0.2 mg/mL hygromycin B (Invitrogen, Carlsbad, Calif.). HEK-Nox5 cells were kindly provided by Dr. David Fulton (Georgia Health Sciences University) and maintained in complete media.
COS-Nox2, COS-Nox1/NOXO1/NOXA1, HEK-Nox5 and COS-22 cells were re-plated in OPTIMEM into 384-well white micro-plates (Greiner-Bio One GmbH, Germany) at a density of 2.5×10^3 cells/well for COS-Nox2 and 5×10^4 cells/well for all others. The cells were incubated at 37° C. in PBS containing […] L-012 for 10 min. Reaction was initiated by addition of 5 μM PMA in the case of Nox2 or 1 μM PMA/0.1 μM Ionomycin in the case of Nox5. Since Nox1 was constitutively active, Nox1-derived O2^•− was assessed by comparison to non-transfected cells (Cos22). Luminescence was quantified over time using a Biotek Synergy 4 Hybrid Multi-Mode Microplate Reader. The specificity of L-012 for O2^•− was confirmed by the addition of SOD (150 U/mL).
(§2) All data are expressed as means±SEM. IC50 values were determined using the GraphPad Prism software (GraphPad Software, San Diego, Calif.) for non-linear regression three-parameters, with constrain values of 100 and 0 for top and bottom, respectively, and assumes a Hill slope of 1.
Heterologous Nox1, 2, 4, and 5 cell systems were used as a testing paradigm to identify a probe molecule that inhibits Nox2 selectively over Nox1, 4, and 5. An acceptable probe would also show a lack of activity against XO, which also produces ROS. The latter screen would serve two purposes: (1) to eliminate drugs that inhibit an oxidase of distinct composition; and (2) to preclude agents that directly scavenge ROS. A cell-based primary assay using stable Nox2-transfected COS cells (Price et al., Blood 2002, 99:2653-2661) with L-012 chemiluminescence (Daiber et al., Free Radic. Biol. Med. 2004, 36:101-111) was used as a detection system for O2^•−-generation.

Nox2 [2] = molecular target: T2, Nox2; experiment: ROS (H2O2) generation in whole COS-Nox2 cells, Amplex Red assay; type: cell-based
Excerpt: as §1
H2O2 production was quantified in intact COS-Nox4 cells by Amplex® Red. Briefly, COS-Nox4 cells (5×10^4 cells/ml) were re-plated into 384-well plate in assay buffer (25 mM Hepes, pH 7.4, containing 0.12 M NaCl, 3 mM KCl, 1 mM MgCl2). The cells were incubated in the presence or absence of drugs at 37° C. in assay buffer supplemented with 0.1 mM Amplex® Red, and 0.32 U/ml of horse radish peroxidase (HRP) for 15 min. Fluorescence measurements were made using a Biotek Synergy 4 Hybrid Multi-Mode Microplate Reader with a 530/25-excitation and a 590/35-emission filter. The reaction was monitored at 37° C. for 1 h. A standard curve of known H2O2 concentrations was included on each plate. Nox4 activity was obtained by calculating the rate of H2O2 production as RFU/min and then subtracting the equivalent value given by non-transfected COS-22 cells. Similarly, H2O2 production by Nox2 cells was also measured by Amplex® Red as described above but in the presence of 150 U/mL of SOD and the reaction was initiated by addition of 5 μM PMA. The rate of H2O2 production in this case was calculated as RFU/min after the subtraction of the equivalent value given by non-stimulated cells. Data are expressed as % of vehicle control.
as §2

T1 sequence (P80457 whole entry): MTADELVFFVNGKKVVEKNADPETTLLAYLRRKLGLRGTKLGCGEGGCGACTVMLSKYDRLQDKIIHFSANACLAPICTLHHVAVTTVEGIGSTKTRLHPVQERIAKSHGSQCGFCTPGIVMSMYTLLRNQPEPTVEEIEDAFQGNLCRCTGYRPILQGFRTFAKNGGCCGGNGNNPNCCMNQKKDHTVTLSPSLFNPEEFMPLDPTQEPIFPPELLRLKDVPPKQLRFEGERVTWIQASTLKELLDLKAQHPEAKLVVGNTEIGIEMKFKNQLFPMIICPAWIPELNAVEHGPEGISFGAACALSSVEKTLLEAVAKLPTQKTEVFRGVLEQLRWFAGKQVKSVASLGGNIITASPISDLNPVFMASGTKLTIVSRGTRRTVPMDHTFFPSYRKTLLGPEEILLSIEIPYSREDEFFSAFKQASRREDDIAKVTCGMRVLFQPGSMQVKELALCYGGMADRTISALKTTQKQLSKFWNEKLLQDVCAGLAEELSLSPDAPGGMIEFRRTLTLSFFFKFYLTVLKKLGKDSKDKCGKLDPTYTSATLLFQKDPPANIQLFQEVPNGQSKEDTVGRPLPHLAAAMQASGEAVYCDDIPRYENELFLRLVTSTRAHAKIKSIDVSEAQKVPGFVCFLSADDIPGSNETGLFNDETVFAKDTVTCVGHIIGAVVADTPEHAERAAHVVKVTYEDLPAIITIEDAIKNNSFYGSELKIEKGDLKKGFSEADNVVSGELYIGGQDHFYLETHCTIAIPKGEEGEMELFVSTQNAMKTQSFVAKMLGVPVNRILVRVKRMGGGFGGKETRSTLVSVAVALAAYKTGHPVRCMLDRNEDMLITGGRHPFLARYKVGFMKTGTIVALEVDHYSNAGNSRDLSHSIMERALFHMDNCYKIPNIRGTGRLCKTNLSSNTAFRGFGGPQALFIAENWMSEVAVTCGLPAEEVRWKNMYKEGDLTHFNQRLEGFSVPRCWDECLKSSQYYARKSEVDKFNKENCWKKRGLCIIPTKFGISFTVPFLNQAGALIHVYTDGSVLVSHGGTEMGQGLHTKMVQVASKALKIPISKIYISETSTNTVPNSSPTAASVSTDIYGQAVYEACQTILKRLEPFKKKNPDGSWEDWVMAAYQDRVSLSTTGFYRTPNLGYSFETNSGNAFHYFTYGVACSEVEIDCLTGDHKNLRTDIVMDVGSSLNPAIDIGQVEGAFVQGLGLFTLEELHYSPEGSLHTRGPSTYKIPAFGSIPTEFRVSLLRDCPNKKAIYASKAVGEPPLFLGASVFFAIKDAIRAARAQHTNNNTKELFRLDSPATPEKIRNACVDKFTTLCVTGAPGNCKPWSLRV

Structure (SMILES)	Effect on ROS production by xanthine oxidase (Bovine milk XO)	pIC50 (Nox2 [1])	Nox2 inhibitory activity (Nox2 [2]; Table 2)	pIC50 (Nox2 [2]; whole COS-Nox2 cells stimulated with 5 μM PMA, Amplex Red)
c1ccc2c(c1)[I+]c1ccccc1-2 [DPI, reference compound]	complete inhibition	–	–	–
C=C(C)CC1NC2CC(C)(C)C1c1c(-c3cccnc3)cccc12 (racemic) [Compound 12d, (±)-(1S,4R,9S)-3,3-Dimethyl-9-(2-methylallyl)-5-(pyridin-3-yl)-1,2,3,4-tetrahydro-1,4-(epimino-methano)naphthalene]	–	< 4.00	inactive	< 4.00
